Test results reported in patent US20240384350A1, “METHODS OF TREATING CANCER WITH KINASE INHIBITORS” (BOARD OF REGENTS, THE UNIVERSITY OF TEXAS SYSTEM, priority 2021, published 2024).

Experiments:
Assay in all cases: Ba/F3 drug screening, Cell Titer Glo, IC50 Mut/WT
Type in all cases: cell-based
EGFR E709K L858R = target: T1, EGFR E709K L858R (Homo sapiens, UniProt P00533, E709K/L858R); settings: Classical-Like, 72 hours
T1 construct: expressed in transfected cells; host or cells: Ba/F3 cells, retroviral pBabe-Puro vector
Protocol: (§1) Data represent the ratio of the IC50 value for a given TKI for cells with a classical-like EGFR mutation to the IC50 value for cells with wildtype EGFR.
(§2) Ba/F3 cell generation, drug screening, and IC50 approximations. Ba/F3 cells were obtained as a gift from Dr. Gordon Mills (MD Anderson Cancer Center), and maintained in RPMI (Sigma) containing 10% FBS, 1% penicillin/streptomycin, and 10 ng/ml recombinant mIL-3 (R&D Biosystems). To establish stable Ba/F3 cell lines, Ba/F3 cells were transduced with retroviruses containing mutant EGFR plasmids for 12-24 hours.
(§3) After 48-72 hours of transduction, 2 μg/ml puromycin (Invitrogen) was added to Ba/F3 cell lines in complete RPMI. To select for EGFR positive cell lines, cells were stained with PE-EGFR (Biolegend) and sorted by FACS. After sorting, EGFR positive cells were maintained in RPMI containing 10% FBS, 1% penicillin/streptomycin, and 1 ng/ml EGF to support cell viability. […] Shortly, cells were plated in 384-well plates (Greiner Bio-One) at 2000-3000 cells per well in technical triplicate. Seven different concentrations of TKIs or DMSO vehicle were added to reach a final volume of 40 μL per well. After 72 hours, 11 μL of Cell Titer Glo (Promega) was added to each well. Plates were incubated for a minimum of 10 minutes, and bioluminescence was determined using a FLUOstar OPTIMA plate reader (BMG LABTECH). Raw bioluminescence values were normalized to DMSO control treated cells, and values were plotted in GraphPad Prism. […] Drug screens were performed in technical triplicate on each plate and either duplicate or triplicate biological replicates.

EGFR L833F = target: T2, EGFR L833F (Homo sapiens, UniProt P00533, L833F); settings: Classical-Like, 72 hours
T2 construct: expressed in transfected cells; host or cells: Ba/F3 cells, retroviral pBabe-Puro vector
Protocol: as §1, §2, §3

EGFR L858R/V834L = target: T3, EGFR L858R/V834L (Homo sapiens, UniProt P00533, L858R/V834L); settings: Classical-Like, 72 hours
T3 construct: expressed in transfected cells; host or cells: Ba/F3 cells, retroviral pBabe-Puro vector
Protocol: as §1, §2, §3

EGFR L858R = target: T4, EGFR L858R (Homo sapiens, UniProt P00533, L858R); settings: Classical-Like, 72 hours
T4 construct: expressed in transfected cells; host or cells: Ba/F3 cells, retroviral pBabe-Puro vector
Protocol: as §1, §2, §3

EGFR L858R S784F = target: T5, EGFR L858R S784F (Homo sapiens, UniProt P00533, L858R/S784F); settings: Classical-Like, 72 hours
T5 construct: expressed in transfected cells; host or cells: Ba/F3 cells, retroviral pBabe-Puro vector (vector made by GeneScript from EGFR L858R)

EGFR S720P = target: T6, EGFR S720P (Homo sapiens, UniProt P00533, S720P); settings: Classical-Like, 72 hours
T6 construct: expressed in transfected cells; host or cells: Ba/F3 cells, retroviral pBabe-Puro vector (vector made by GeneScript from EGFR WT)
Protocol: as §1, §2, §3

EGFR T725M = target: T7, EGFR T725M (Homo sapiens, UniProt P00533, T725M); settings: Classical-Like, 72 hours
T7 construct: expressed in transfected cells; host or cells: Ba/F3 cells, retroviral pBabe-Puro vector (vector made by GeneScript from EGFR WT)
Protocol: as §1, §2, §3

EGFR L861R = target: T8, EGFR L861R (Homo sapiens, UniProt P00533, L861R); settings: Classical-Like, 72 hours
T8 construct: expressed in transfected cells; host or cells: Ba/F3 cells, retroviral pBabe-Puro vector (vector made by GeneScript from EGFR WT)

EGFR A763insFQEA = target: T9, EGFR A763insFQEA (Homo sapiens, UniProt P00533, INS763FQEA); settings: Classical-Like, 72 hours
T9 construct: expressed in transfected cells; host or cells: Ba/F3 cells, retroviral pBabe-Puro vector
Protocol: as §1, §2, §3

EGFR A767insASV = target: T10, EGFR A767insASV (Homo sapiens, UniProt P00533, DUP767-769); settings: Ex20, 72 hours
T10 construct: expressed in transfected cells; host or cells: Ba/F3 cells, retroviral pBabe-Puro vector

EGFR S768dupSVD = target: T11, EGFR S768dupSVD (Homo sapiens, UniProt P00533, DUP768-770); settings: Ex20, 72 hours
T11 construct: expressed in transfected cells; host or cells: Ba/F3 cells, retroviral pBabe-Puro vector

EGFR D770insNPG = target: T12, EGFR D770insNPG (Homo sapiens, UniProt P00533, INS770NPG); settings: Ex20, 72 hours
T12 construct: expressed in transfected cells; host or cells: Ba/F3 cells, retroviral pBabe-Puro vector

EGFR H773insNPH = target: T13, EGFR H773insNPH (Homo sapiens, UniProt P00533, INS773NPH); settings: Ex20, 72 hours
T13 construct: expressed in transfected cells; host or cells: Ba/F3 cells, retroviral pBabe-Puro vector

[1] = target: T14, EGFR L747_K754del insATSPE (Homo sapiens, UniProt P00533, DEL747-749/K754E); settings: T790M-like-3S, 72 hours
T14 construct: expressed in transfected cells; host or cells: Ba/F3 cells, retroviral pBabe-Puro vector
Protocol: (§4) Data represent the ratio of the IC50 value for a given TKI for cells with a T790M-like-3S EGFR mutation to the IC50 value for cells with wildtype EGFR.
as §2
(§5) After 48-72 hours of transduction, 2 μg/ml puromycin (Invitrogen) was added to Ba/F3 cell lines in complete RPMI. To select for EGFR positive cell lines, cells were stained with PE-EGFR (Biolegend) and sorted by FACS. After sorting, EGFR positive cells were maintained in RPMI containing 10% FBS, 1% penicillin/streptomycin, and 1 ng/ml EGF to support cell viability. Drug screening was performed as previously described^41,42. Shortly, cells were plated in 384-well plates (Greiner Bio-One) at 2000-3000 cells per well in technical triplicate. Seven different concentrations of TKIs or DMSO vehicle were added to reach a final volume of 40 μL per well. After 72 hours, 11 μL of Cell Titer Glo (Promega) was added to each well. Plates were incubated for a minimum of 10 minutes, and bioluminescence was determined using a FLUOstar OPTIMA plate reader (BMG LABTECH). Raw bioluminescence values were normalized to DMSO control treated cells, and values were plotted in GraphPad Prism. […] Drug screens were performed in technical triplicate on each plate and either duplicate or triplicate biological replicates.

EGFR Ex19del T790M = target: T15, EGFR Ex19del T790M (Homo sapiens, UniProt P00533, DEL746-750/T790M); settings: T790M-like-3S, 72 hours
T15 construct: expressed in transfected cells; host or cells: Ba/F3

EGFR Ex19del/T790M/G724S = target: T16, EGFR Ex19del/T790M/G724S (Homo sapiens, UniProt P00533, DEL746-750/G724S/T790M); settings: T790M-like-3S, 72 hours
T16 construct: expressed in transfected cells; host or cells: Ba/F3
Protocol: as §4, §2, §5

EGFR L718Q T790M = target: T17, EGFR L718Q T790M (Homo sapiens, UniProt P00533, L718Q/T790M); settings: T790M-like-3R, 72 hours
T17 construct: expressed in transfected cells; host or cells: Ba/F3
Protocol: (§6) Data represent the ratio of the IC50 value for a given TKI for cells with a T790M-like-3R EGFR mutation to the IC50 value for cells with wildtype EGFR.
as §2
(§7) After 48-72 hours of transduction, 2 μg/ml puromycin (Invitrogen) was added to Ba/F3 cell lines in complete RPMI. To select for EGFR positive cell lines, cells were stained with PE-EGFR (Biolegend) and sorted by FACS. After sorting, EGFR positive cells were maintained in RPMI containing 10% FBS, 1% penicillin/streptomycin, and 1 ng/ml EGF to support cell viability. […] Shortly, cells were plated in 384-well plates (Greiner Bio-One) at 2000-3000 cells per well in technical triplicate. Seven different concentrations of TKIs or DMSO vehicle were added to reach a final volume of 40 μL per well. After 72 hours, 11 μL of Cell Titer Glo (Promega) was added to each well. Plates were incubated for a minimum of 10 minutes, and bioluminescence was determined using a FLUOstar OPTIMA plate reader (BMG LABTECH). Raw bioluminescence values were normalized to DMSO control treated cells, and values were plotted in GraphPad Prism. […] Drug screens were performed in technical triplicate on each plate and either duplicate or triplicate biological replicates. […] Statistical differences between groups were determined by ANOVA as described in the figure legends.

EGFR L858R/T790M/L718Q = target: T18, EGFR L858R/T790M/L718Q (Homo sapiens, UniProt P00533, L718Q/L858R/T790M); settings: T790M-like-3R, 72 hours
T18 construct: expressed in transfected cells; host or cells: Ba/F3
Protocol: as §6, §2, §7

EGFR L858R/T790M/C797S = target: T19, EGFR L858R/T790M/C797S (Homo sapiens, UniProt P00533, C797S/L858R/T790M); settings: T790M-like-3R, 72 hours
T19 construct: expressed in transfected cells; host or cells: Ba/F3
Protocol: as §6, §2, §7

EGFR Ex19del T790M C797S = target: T20, EGFR Ex19del T790M C797S (Homo sapiens, UniProt P00533, C797S/DEL746-750/T790M); settings: T790M-like-3R, 72 hours
T20 construct: expressed in transfected cells; host or cells: Ba/F3

EGFR L747S = target: T21, EGFR L747S (Homo sapiens, UniProt P00533, L747S)
T21 construct: expressed in transfected cells; host or cells: Ba/F3

EGFR R776H = target: T22, EGFR R776H (Homo sapiens, UniProt P00533, R776H)
T22 construct: host or cells: Ba/F3

EGFR Ex19del G724S = target: T23, EGFR Ex19del G724S (Homo sapiens, UniProt P00533, DEL746-750/G724S)
T23 construct: expressed in transfected cells; host or cells: Ba/F3
Protocol: (§8) Data represent the ratio of the IC50 value for a given TKI for cells with a PACC EGFR mutation to the IC50 value for cells with wildtype EGFR.
as §2, §5

EGFR Ex19del G796S = target: T24, EGFR Ex19del G796S (Homo sapiens, UniProt P00533, DEL746-750/G796S)
T24 construct: expressed in transfected cells; host or cells: Ba/F3

EGFR Ex19del/C797S = target: T25, EGFR Ex19del/C797S (Homo sapiens, UniProt P00533, C797S/DEL746-750)
T25 construct: expressed in transfected cells; host or cells: Ba/F3
Protocol: as §8, §2, §5

EGFR Ex19del L718V = target: T26, EGFR Ex19del L718V (Homo sapiens, UniProt P00533, DEL746-750/L718V)
T26 construct: expressed in transfected cells; host or cells: Ba/F3

EGFR Ex19del T854I = target: T27, EGFR Ex19del T854I (Homo sapiens, UniProt P00533, DEL746-750/T854I)
T27 construct: expressed in transfected cells; host or cells: Ba/F3 (retroviral transduction, pBabe-Puro based vectors)
Protocol: as §8, §2, §5

| Compound | ratio of IC50 for cells with mutant EGFR to IC50 for cells with wildtype EGFR (Mut/WT) (EGFR E709K L858R) | ratio of IC50 for cells with mutant EGFR to IC50 for cells with wildtype EGFR (Mut/WT) (EGFR L833F) | ratio of IC50 for cells with mutant EGFR to IC50 for cells with wildtype EGFR (Mut/WT) (EGFR L858R/V834L) | ratio of IC50 for cells with mutant EGFR to IC50 for cells with wildtype EGFR (Mut/WT) (EGFR L858R) | ratio of IC50 for cells with mutant EGFR to IC50 for cells with wildtype EGFR (Mut/WT) (EGFR L858R S784F) | ratio of IC50 for cells with mutant EGFR to IC50 for cells with wildtype EGFR (Mut/WT) (EGFR S720P) | ratio of IC50 for cells with mutant EGFR to IC50 for cells with wildtype EGFR (Mut/WT) (EGFR T725M) | ratio of IC50 for cells with mutant EGFR to IC50 for cells with wildtype EGFR (Mut/WT) (EGFR L861R) | ratio of IC50 for cells with mutant EGFR to IC50 for cells with wildtype EGFR (Mut/WT) (EGFR A763insFQEA) | ratio of IC50 for cells with mutant EGFR to IC50 for cells with wildtype EGFR (Mut/WT) (EGFR A767insASV) | ratio of IC50 for cells with mutant EGFR to IC50 for cells with wildtype EGFR (Mut/WT) (EGFR S768dupSVD) | ratio of IC50 for cells with mutant EGFR to IC50 for cells with wildtype EGFR (Mut/WT) (EGFR D770insNPG) | ratio of IC50 for cells with mutant EGFR to IC50 for cells with wildtype EGFR (Mut/WT) (EGFR H773insNPH) | ratio of IC50 for cells with mutant EGFR to IC50 for cells with wildtype EGFR (Mut/WT) [1] | ratio of IC50 for cells with mutant EGFR to IC50 for cells with wildtype EGFR (Mut/WT) (EGFR Ex19del T790M) | ratio of IC50 for cells with mutant EGFR to IC50 for cells with wildtype EGFR (Mut/WT) (EGFR Ex19del/T790M/G724S) | ratio of IC50 for cells with mutant EGFR to IC50 for cells with wildtype EGFR (Mut/WT) (EGFR L718Q T790M) | ratio of IC50 for cells with mutant EGFR to IC50 for cells with wildtype EGFR (Mut/WT) (EGFR L858R/T790M/L718Q) | ratio of IC50 for cells with mutant EGFR to IC50 for cells with wildtype EGFR (Mut/WT) (EGFR L858R/T790M/C797S) | ratio of IC50 for cells with mutant EGFR to IC50 for cells with wildtype EGFR (Mut/WT) (EGFR Ex19del T790M C797S) | also measured |
| --- | --- | --- | --- | --- | --- | --- | --- | --- | --- | --- | --- | --- | --- | --- | --- | --- | --- | --- | --- | --- | --- |
| C=CC(=O)N[C@H]1C=C(C)c2c(-c3cnc4ccccc4c3)c3c(N)ncnc3n2C1 [TAS 6417] | 0.002607 | 0.06886 | 0.0005227 | 0.003918 | 0.001423 | 0.01035 | 0.02572 | 0.02984 | 0.004982 | 0.1359 | 0.05773 | 0.0168 | 0.1843 | 0.0004661 | 0.001513 | 0.1997 | 0.02624 | 3.055 | 4.897 | 3.055 | ratio of the IC50 value for cells with a PACC EGFR mutation to the IC50 value for cells with wildtype EGFR (EGFR L747S; Ba/F3 cells, EGFR L747S (PACC), Mut/WT): 0.06482; ratio of the IC50 value for cells with a PACC EGFR mutation to the IC50 value for cells with wildtype EGFR (EGFR R776H; Ba/F3 cells, EGFR R776H (PACC), Mut/WT): 0.09; ratio of the IC50 value for cells with a PACC EGFR mutation to the IC50 value for cells with wildtype EGFR (EGFR Ex19del G724S; Ba/F3 cells, EGFR Ex19del G724S (PACC), Mut/WT): 0.2809; ratio of the IC50 value for cells with a PACC EGFR mutation to the IC50 value for cells with wildtype EGFR (EGFR Ex19del G796S; Ba/F3 cells, EGFR Ex19del G796S (PACC), Mut/WT): 0.06554; ratio of the IC50 value for cells with a PACC EGFR mutation to the IC50 value for cells with wildtype EGFR (EGFR Ex19del/C797S; Ba/F3 cells, EGFR Ex19del/C797S (PACC), Mut/WT): 1.093; ratio of the IC50 value for cells with a PACC EGFR mutation to the IC50 value for cells with wildtype EGFR (EGFR Ex19del L718V; Ba/F3 cells, EGFR Ex19del L718V (PACC), Mut/WT): 0.0009364; ratio of the IC50 value for cells with a PACC EGFR mutation to the IC50 value for cells with wildtype EGFR (EGFR Ex19del T854I; Ba/F3 cells, EGFR Ex19del T854I (PACC), Mut/WT): 0.0152 |
| CN(C)C/C=C/C(=O)Nc1cc2c(Nc3ccc(Cl)c(Br)c3)ncnc2cn1 [Tarlox-TKI] | 0.005792 | 0.07887 | 0.002571 | 0.1181 | 0.001643 | 0.02412 | 0.004861 | 0.01926 | 0.05463 | 0.9945 | 0.3065 | 5.023 | 11.56 | 4.874 | 14.38 | 4.197 | 16.46 | 304.5 | 20.7 | 33.62 | ratio of IC50 for cells with mutant EGFR to IC50 for cells with wildtype EGFR (Mut/WT) (EGFR L747S; PACC, L747S, Ba/F3, 72 hours): 0.1733; ratio of IC50 for cells with mutant EGFR to IC50 for cells with wildtype EGFR (Mut/WT) (EGFR R776H; PACC, R776H, Ba/F3, 72 hours): 0.1639; ratio of IC50 for cells with mutant EGFR to IC50 for cells with wildtype EGFR (Mut/WT) (EGFR Ex19del G724S; PACC, Ex19del G724S, Ba/F3, 72 hours): 2.658; ratio of IC50 for cells with mutant EGFR to IC50 for cells with wildtype EGFR (Mut/WT) (EGFR Ex19del G796S; PACC, Ex19del G796S, Ba/F3, 72 hours): 25.15; ratio of IC50 for cells with mutant EGFR to IC50 for cells with wildtype EGFR (Mut/WT) (EGFR Ex19del/C797S; PACC, Ex19del/C797S, Ba/F3, 72 hours): 0.2272; ratio of IC50 for cells with mutant EGFR to IC50 for cells with wildtype EGFR (Mut/WT) (EGFR Ex19del L718V; PACC, Ex19del L718V, Ba/F3, 72 hours): 0.1214; ratio of IC50 for cells with mutant EGFR to IC50 for cells with wildtype EGFR (Mut/WT) (EGFR Ex19del T854I; PACC, Ex19del T854I, Ba/F3, 72 hours): 0.7019 |
